Experimental data as given in US20260365670A1, “EGFR INHIBITORS AND USES THEREOF” (DIZAL (JIANGSU) PHARMACEUTICAL CO., LTD., priority 2022, published 2026).
Where two headings read alike, the source gives them in different places.

Assays:
EGFR wild type = target: T1, EGFR wild type (Homo sapiens, UniProt P00533); assay: Inhibition of EGFR wild type biochemical enzymatic activity (HTRF); settings: EGFR WT, 1 mM ATP, 1 h, room temperature, read-out: IC50 (nM) @WT
T1 construct: purchased Carna Bio
T1 sequence (P00533 25-1210): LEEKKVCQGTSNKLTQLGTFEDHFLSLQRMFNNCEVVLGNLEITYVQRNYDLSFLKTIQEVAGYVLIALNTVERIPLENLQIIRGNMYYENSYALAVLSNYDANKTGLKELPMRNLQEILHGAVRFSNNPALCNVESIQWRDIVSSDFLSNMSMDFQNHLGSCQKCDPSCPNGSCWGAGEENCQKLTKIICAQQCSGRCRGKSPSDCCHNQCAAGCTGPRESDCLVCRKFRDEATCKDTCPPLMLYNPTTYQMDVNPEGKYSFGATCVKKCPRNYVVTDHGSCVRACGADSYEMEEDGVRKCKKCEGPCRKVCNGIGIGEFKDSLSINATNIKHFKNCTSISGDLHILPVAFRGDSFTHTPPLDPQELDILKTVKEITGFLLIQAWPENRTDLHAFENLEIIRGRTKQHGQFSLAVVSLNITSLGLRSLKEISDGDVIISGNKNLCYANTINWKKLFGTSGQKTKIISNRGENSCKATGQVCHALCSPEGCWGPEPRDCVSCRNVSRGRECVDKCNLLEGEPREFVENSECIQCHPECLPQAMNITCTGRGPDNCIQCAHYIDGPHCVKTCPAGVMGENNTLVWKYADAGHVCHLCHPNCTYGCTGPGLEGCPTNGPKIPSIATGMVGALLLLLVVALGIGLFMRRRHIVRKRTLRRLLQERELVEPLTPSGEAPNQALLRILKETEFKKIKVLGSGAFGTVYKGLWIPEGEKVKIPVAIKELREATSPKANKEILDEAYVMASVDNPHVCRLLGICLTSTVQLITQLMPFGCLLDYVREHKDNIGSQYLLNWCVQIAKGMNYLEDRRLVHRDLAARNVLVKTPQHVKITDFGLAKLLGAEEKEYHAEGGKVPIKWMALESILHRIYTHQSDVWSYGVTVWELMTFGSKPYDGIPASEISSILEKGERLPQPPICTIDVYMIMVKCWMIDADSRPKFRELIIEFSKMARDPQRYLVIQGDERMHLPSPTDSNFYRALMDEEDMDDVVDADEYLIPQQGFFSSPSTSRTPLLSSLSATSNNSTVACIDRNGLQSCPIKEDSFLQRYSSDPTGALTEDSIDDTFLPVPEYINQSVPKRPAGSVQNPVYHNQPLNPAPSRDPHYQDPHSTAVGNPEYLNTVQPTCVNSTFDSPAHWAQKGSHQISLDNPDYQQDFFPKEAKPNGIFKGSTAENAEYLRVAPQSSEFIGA
Procedure, shortened: (§1)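 In a buffer with 5 mM MgCl2, 1 mM MnCl2, 1 mM DTT and 0.01% CHAPS, enzyme turnover of 1 μM biotinylated TK substrate at 1 mM ATP is followed by HTRF after 1 h at room temperature. IC50 is obtained by a four-parameter fit.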

EGFR L858R = target: T2, EGFR L858R (Homo sapiens, UniProt P00533, L858R); assay: Inhibition of EGFR L858R biochemical enzymatic activity (HTRF); settings: 1 mM ATP, 1 h, room temperature, read-out: IC50 (nM) @L858R
T2 construct: purchased Carna Bio
Procedure, shortened: as §1

EGFR L858R/T790M = target: T3, EGFR L858R/T790M (Homo sapiens, UniProt P00533, L858R/T790M); assay: Inhibition of EGFR L858R/T790M biochemical enzymatic activity (HTRF); settings: EGFR L858R-T790M, 1 mM ATP, 1 h, room temperature, read-out: IC50 (nM) @L858R-T790M
T3 construct: purchased Carna Bio
T3 sequence (P00533 25-1210 T790M/L858R): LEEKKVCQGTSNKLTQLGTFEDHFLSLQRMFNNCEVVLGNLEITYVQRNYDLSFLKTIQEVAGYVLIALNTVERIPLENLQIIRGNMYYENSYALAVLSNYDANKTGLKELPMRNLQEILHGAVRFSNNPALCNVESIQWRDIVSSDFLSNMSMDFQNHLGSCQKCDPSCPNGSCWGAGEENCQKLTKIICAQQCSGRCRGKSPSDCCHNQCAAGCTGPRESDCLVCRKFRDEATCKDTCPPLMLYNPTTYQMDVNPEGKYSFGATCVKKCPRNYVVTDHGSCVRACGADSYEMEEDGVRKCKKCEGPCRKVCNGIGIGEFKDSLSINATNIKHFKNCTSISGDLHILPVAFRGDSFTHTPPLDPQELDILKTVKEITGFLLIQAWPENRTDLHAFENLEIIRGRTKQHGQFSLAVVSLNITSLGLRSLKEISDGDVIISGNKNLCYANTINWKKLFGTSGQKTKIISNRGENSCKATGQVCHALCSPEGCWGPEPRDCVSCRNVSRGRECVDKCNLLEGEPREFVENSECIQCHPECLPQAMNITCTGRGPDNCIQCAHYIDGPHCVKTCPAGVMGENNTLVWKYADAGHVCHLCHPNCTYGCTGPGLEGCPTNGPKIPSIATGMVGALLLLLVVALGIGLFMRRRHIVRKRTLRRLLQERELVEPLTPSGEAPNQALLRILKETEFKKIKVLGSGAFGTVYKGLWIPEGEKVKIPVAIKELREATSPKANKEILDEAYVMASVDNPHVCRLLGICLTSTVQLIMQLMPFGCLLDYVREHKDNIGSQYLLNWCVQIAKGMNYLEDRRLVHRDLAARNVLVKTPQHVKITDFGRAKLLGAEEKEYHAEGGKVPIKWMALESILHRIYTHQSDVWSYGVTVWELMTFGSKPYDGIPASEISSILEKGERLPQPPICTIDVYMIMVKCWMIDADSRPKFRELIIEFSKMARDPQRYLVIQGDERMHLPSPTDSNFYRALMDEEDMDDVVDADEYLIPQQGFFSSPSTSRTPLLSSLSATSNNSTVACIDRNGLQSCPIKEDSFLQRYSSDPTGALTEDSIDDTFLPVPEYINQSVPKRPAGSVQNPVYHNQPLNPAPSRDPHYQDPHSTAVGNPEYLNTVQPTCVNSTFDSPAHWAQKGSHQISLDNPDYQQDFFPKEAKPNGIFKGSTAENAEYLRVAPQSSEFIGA
Procedure, shortened: as §1

EGFR Exon19Del = target: T4, EGFR Exon19Del (Homo sapiens, UniProt P00533, DEL746-750); assay: Inhibition of EGFR Exon19Del biochemical enzymatic activity (HTRF); settings: EGFR Del19, 1 mM ATP, 1 h, room temperature, read-out: IC50 @Del19
T4 construct: purchased Carna Bio
T4 sequence (P00533 with tags, fused parts or gaps DEL746-750 limits assumed): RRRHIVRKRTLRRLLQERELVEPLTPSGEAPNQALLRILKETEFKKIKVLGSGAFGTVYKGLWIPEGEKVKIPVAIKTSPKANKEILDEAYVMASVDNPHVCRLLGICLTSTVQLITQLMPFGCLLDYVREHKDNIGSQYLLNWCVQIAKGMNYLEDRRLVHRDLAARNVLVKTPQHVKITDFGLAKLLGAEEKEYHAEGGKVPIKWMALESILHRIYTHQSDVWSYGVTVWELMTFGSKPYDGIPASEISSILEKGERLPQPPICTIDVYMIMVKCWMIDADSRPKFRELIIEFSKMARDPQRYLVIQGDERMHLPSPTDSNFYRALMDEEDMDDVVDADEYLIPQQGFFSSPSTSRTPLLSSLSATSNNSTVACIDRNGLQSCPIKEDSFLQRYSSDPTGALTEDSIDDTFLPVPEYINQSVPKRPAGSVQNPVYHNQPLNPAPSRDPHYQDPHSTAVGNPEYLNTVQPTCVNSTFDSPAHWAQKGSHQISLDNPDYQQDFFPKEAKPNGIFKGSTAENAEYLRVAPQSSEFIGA
Procedure, shortened: as §1

EGFR Exon19Del/T790M = target: T5, EGFR Exon19Del/T790M (Homo sapiens, UniProt P00533, DEL746-750/T790M); assay: Inhibition of EGFR Exon19Del/T790M biochemical enzymatic activity (HTRF); settings: EGFR Del19-T790M, 1 mM ATP, 1 h, room temperature, read-out: IC50 (nM) @Del19-T790M
T5 construct: purchased Carna Bio
T5 sequence (P00533 with tags, fused parts or gaps DEL746-750/T790M limits assumed): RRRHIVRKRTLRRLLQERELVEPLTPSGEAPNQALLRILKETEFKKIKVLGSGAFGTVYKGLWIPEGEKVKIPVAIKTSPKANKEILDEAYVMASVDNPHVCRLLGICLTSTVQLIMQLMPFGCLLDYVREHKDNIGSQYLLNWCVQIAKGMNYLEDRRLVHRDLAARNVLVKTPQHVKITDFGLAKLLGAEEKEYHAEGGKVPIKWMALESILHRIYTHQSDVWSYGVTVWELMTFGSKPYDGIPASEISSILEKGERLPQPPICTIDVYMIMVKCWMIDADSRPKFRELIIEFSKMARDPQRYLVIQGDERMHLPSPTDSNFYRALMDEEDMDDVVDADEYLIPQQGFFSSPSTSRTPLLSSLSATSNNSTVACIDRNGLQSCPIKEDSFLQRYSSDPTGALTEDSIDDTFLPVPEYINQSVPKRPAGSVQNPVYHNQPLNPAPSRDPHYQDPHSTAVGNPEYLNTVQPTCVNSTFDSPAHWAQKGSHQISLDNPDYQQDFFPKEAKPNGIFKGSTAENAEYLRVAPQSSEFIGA
Procedure, shortened: as §1

EGFR[T790M/C797S/L858R] = target: T6, EGFR[T790M/C797S/L858R] (Homo sapiens, UniProt P00533, C797S/L858R/T790M); assay: Inhibition of EGFR[T790M/C797S/L858R] biochemical enzymatic activity (HTRF); settings: EGFR T790M-C797S-L858R, 1 mM ATP, 1 h, room temperature, read-out: IC50 (nM) @T790M- C797S - L858R
T6 construct: purchased Carna Bio
Procedure, shortened: as §1

[1] = target: T7, EGFR[T790M/C797S/d746-750] (Homo sapiens, UniProt P00533, C797S/DEL746-750/T790M); assay: Inhibition of EGFR[T790M/C797S/d746-750] biochemical enzymatic activity (HTRF); settings: EGFR T790M-C797S-Del19, 1 mM ATP, 1 h, room temperature, read-out: IC50 (nM) @T790M - C797S - Del19
T7 construct: purchased Carna Bio
T7 sequence (P00533 with tags, fused parts or gaps DEL746-750/T790M/C797S limits assumed): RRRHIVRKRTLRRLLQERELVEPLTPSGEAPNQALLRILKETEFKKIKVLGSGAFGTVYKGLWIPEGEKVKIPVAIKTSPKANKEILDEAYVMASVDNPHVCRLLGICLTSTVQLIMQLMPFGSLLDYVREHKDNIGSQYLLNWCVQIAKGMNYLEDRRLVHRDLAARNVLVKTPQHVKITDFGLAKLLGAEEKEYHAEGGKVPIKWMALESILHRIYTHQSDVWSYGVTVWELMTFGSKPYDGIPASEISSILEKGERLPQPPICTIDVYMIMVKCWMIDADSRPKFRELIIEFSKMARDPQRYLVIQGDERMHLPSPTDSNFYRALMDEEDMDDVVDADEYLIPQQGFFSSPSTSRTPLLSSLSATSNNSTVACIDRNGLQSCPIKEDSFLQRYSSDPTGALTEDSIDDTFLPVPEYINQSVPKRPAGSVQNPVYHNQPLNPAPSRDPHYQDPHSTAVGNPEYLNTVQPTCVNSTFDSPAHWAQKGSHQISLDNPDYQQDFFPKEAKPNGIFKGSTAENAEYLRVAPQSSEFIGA
Procedure, shortened: as §1

EGFR (d746-750 C797S) = target: T8, EGFR (d746-750 C797S) (Homo sapiens, UniProt P00533, C797S/DEL746-750); assay: Inhibition of EGFR (d746-750 C797S) biochemical enzymatic activity (HTRF); settings: EGFR Del19-C797S, 1 mM ATP, 1 h, room temperature, read-out: IC50 (nM) @Del19-C797S
T8 construct: purchased signalchem
T8 sequence (P00533 with tags, fused parts or gaps DEL746-750/C797S limits assumed): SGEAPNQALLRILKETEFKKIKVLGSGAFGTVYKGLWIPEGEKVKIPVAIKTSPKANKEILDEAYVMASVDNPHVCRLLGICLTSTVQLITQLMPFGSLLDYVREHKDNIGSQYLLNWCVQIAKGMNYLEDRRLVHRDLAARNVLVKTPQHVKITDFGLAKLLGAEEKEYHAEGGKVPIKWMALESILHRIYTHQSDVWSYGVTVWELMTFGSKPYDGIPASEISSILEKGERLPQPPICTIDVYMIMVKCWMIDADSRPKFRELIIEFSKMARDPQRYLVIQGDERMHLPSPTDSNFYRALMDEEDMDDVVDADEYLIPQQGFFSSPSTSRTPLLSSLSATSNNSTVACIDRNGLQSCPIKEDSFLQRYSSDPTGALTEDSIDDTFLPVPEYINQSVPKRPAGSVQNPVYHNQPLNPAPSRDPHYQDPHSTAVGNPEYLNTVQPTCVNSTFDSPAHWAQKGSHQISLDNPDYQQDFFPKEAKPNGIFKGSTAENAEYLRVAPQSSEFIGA
Procedure, shortened: as §1

EGFR (C797S L858R) = target: T9, EGFR (C797S L858R) (Homo sapiens, UniProt P00533, C797S/L858R); assay: Inhibition of EGFR (C797S L858R) biochemical enzymatic activity (HTRF); settings: EGFR L858-C797S, 1 mM ATP, 1 h, room temperature, read-out: IC50 (nM) @L858-C797S
T9 construct: purchased signalchem
Procedure, shortened: as §1

[2] = test system: Ba/F3 cells expressing EGFR mutations; assay: Cell proliferation assay, Ba/F3 cells expressing EGFR mutations (CellTiter-Glo, 72 hours); type: cell-based; settings: CellTiter-Glo
Procedure, shortened: (§2)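 GI50 is the concentration giving 50% proliferation inhibition. Growth for this was normalised to a baseline viability reading taken when compound was added, and to DMSO wells. PC-9 (500 cells/well) and mutant-EGFR Ba/F3 (5000 cells/well) are treated after overnight seeding in RPMI1640-based medium.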

PC-9 = assay: Cell proliferation assay, PC-9 cells (CellTiter-Glo, 72 hours); type: cell-based; settings: PC9 cells, CellTiter-Glo, read-out: PC9 GI50
Procedure, shortened: as §2

A-431 = assay: Cell proliferation GI50, A-431 cells (Table 6); type: cell-based
[3] = BaF3 cells, EGFR DEL19-C797S, read-out: DEL19-C797S/BaF3 GI50
[4] = BaF3 cells, EGFR DEL19-T790-C797S, read-out: DEL19-T790-C797S/BaF3 GI50
[5] = BaF3 cells, EGFR L858R, read-out: L858R/BaF3 GI50
[6] = BaF3 cells, EGFR L858R-C797S, read-out: L858R-C797S/BaF3 GI50
[7] = BaF3 cells, EGFR L858R-T790-C797S, read-out: L858R-T790-C797S/BaF3 GI50
[8] = BaF3 cells, EGFR L858R-T790M, read-out: L858R-T790M/BaF3 GI50
[9] = EGFR DEL19-T790M, read-out: DEL19-T790M GI50
[10] = Homo sapiens, A-431, A-431 cells
[11] = Mus musculus, BaF3, 72 h, BaF3 cells, EGFR DEL19-C797S, read-out: DEL19-C797S/BaF3 GI50
[12] = Mus musculus, BaF3, 72 h, BaF3 cells, EGFR DEL19-T790-C797S, read-out: DEL19-T790-C797S/BaF3 GI50
[13] = Mus musculus, BaF3, 72 h, BaF3 cells, EGFR L858R, read-out: L858R/BaF3 GI50
[14] = Mus musculus, BaF3, 72 h, BaF3 cells, EGFR L858R-C797S, read-out: L858R-C797S/BaF3 GI50
[15] = Mus musculus, BaF3, 72 h, BaF3 cells, EGFR L858R-T790-C797S, read-out: L858R-T790-C797S/BaF3 GI50
[16] = Mus musculus, BaF3, 72 h, BaF3 cells, EGFR L858R-T790M, read-out: L858R-T790M/BaF3 GI50
[17] = Mus musculus, BaF3, 72 h, EGFR DEL19-T790M, read-out: DEL19-T790M GI50

Row | Compound | IC50 (EGFR wild type) | IC50 (EGFR L858R) | IC50 (EGFR L858R/T790M) | IC50 (EGFR Exon19Del) | IC50 (EGFR Exon19Del/T790M) | IC50 (EGFR[T790M/C797S/L858R]) | IC50 [1] | IC50 (EGFR (d746-750 C797S)) | IC50 (EGFR (C797S L858R)) | GI50 [2, 3] | GI50 [2, 4] | GI50 [2, 5] | GI50 [2, 6] | GI50 [2, 7] | GI50 [2, 8] | GI50 [2, 9] | GI50 (PC-9) | GI50 (A-431; [10]) | GI50 [2, 11] | GI50 [2, 12] | other results
1 | CN1CC2CN(c3ccc4nc5n(c4c3)C34CCC(CN(CCOc6c(cnn6C)-c6cc(cn(C)c6=O)C(=O)N5)C3)C4)CC2C1 (single isomer, unassigned) [Example A68B] | 8.9 nM | 2.9 nM | 1.8 nM | 1.2 nM | 1.8 nM | 1.8 nM | 1.8 nM | 0.95 nM | 3.1 nM | 0.66 nM | 1.3 nM | 2.1 nM | 2.8 nM | 1.3 nM | 9.6 nM | 1.8 nM | 3.5 nM | – | – | – | GI50 (A-431; A-431 cells): 284 nM
2 | CN1CCC2(CC1)CN(c1ccc3nc4n(c3c1)C13CCC(CN(CCOc5c(cnn5C)-c5cc(cn(C)c5=O)C(=O)N4)C1)C3)C2 (single isomer, unassigned) [Example A77B] | 7.3 nM | 3.5 nM | 3.8 nM | 2.9 nM | 3.8 nM | 3.4 nM | 3.6 nM | 2.1 nM | 3.7 nM | 0.72 nM | 0.91 nM | 0.89 nM | 1.4 nM | 1.3 nM | 2.4 nM | 0.85 nM | 2.1 nM | 310 nM | – | – | –
3 | Cn1ncc2c1OCCN1CC3CCC(C3)(C1)n1c(nc3ccc(N4CCOCC4)cc31)NC(=O)c1cc-2c(=O)n(C)c1 (single isomer, unassigned) [Example A62B, 15,21-Dimethyl-5-(morpholin-4-yl)-23-oxa-2,9,11,15,20,21,26-heptaazaheptacyclo[24.4.1.1^{1,28}.1^{13,17}.0^{2,10}.0^{3,8}.0^{18,22}]tritriaconta-3,5,7,9,13,17(33),18(22),19-octaene-12,16-dione] | 809 nM | 45 nM | 6.3 nM | 3.5 nM | 2.8 nM | 4.3 nM | 2.9 nM | 1.4 nM | 19 nM | – | – | – | – | – | – | – | – | 1070 nM | 0.64 nM | 2.5 nM | GI50 [2, 13]: 3.9 nM; GI50 [2, 14]: 5.2 nM; GI50 [2, 15]: 5.3 nM; GI50 [2, 16]: 8.4 nM; GI50 [2, 17]: 2.6 nM; GI50 (PC-9; Homo sapiens, PC-9, 72 h): 10 nM
4 | CN(C)C1CCN(c2ccc3nc4n(c3c2)C23CCC(CN(CCOc5c(cnn5C)-c5cc(cn(C)c5=O)C(=O)N4)C2)C3)CC1 (single isomer, unassigned) [Example A64A] | > 5000 nM | > 5000 nM | > 5000 nM | 2160 nM | > 5000 nM | > 5000 nM | 2100 nM | 1920 nM | > 5000 nM | 215 nM | 513 nM | 599 nM | 443 nM | 381 nM | 2100 nM | 755 nM | 546 nM | – | – | – | GI50 (A-431; A-431 cells): 6130 nM

Now from value to compound, other results behind:

Row | IC50 (EGFR wild type) | IC50 (EGFR L858R) | IC50 (EGFR L858R/T790M) | IC50 (EGFR Exon19Del) | IC50 (EGFR Exon19Del/T790M) | IC50 (EGFR[T790M/C797S/L858R]) | IC50 [1] | IC50 (EGFR (d746-750 C797S)) | IC50 (EGFR (C797S L858R)) | GI50 [2, 3] | GI50 [2, 4] | GI50 [2, 5] | GI50 [2, 6] | GI50 [2, 7] | GI50 [2, 8] | GI50 [2, 9] | GI50 (PC-9) | GI50 (A-431; [10]) | GI50 [2, 11] | GI50 [2, 12] | Compound | other results
5 | > 5000 nM | > 5000 nM | 2610 nM | 202 nM | 11 nM | 807 nM | 11 nM | 140 nM | 4720 nM | – | – | – | – | – | – | – | – | 1140 nM | 32 nM | 75 nM | Cn1ncc2c1OCCN1CC3CCC(C3)(C1)n1c(nc3cc(Br)ccc31)NC(=O)c1cc-2c(=O)n(C)c1 (stereo not drawn) [Example A59, 6-Bromo-15,21-dimethyl-23-oxa-2,9,11,15,20,21,26-heptaazaheptacyclo[24.4.1.1^{1,28}.1^{13,17}.0^{2,10}.0^{3,8}.0^{18,22}]tritriaconta-3,5,7,9,13,17(33),18(22),19-octaene-12,16-dione] | GI50 [2, 13]: 201 nM; GI50 [2, 14]: 222 nM; GI50 [2, 15]: 160 nM; GI50 [2, 16]: 964 nM; GI50 [2, 17]: 140 nM; GI50 (PC-9; Homo sapiens, PC-9, 72 h): 295 nM
6 | 1200 nM | 86 nM | 6.3 nM | 9.1 nM | 6.2 nM | 5.8 nM | 6.5 nM | 6.5 nM | 25 nM | – | – | – | – | – | – | – | – | 2290 nM | 9.3 nM | 11 nM | C[C@@H]1CCCOc2c(cnn2C2CC2)-c2cc(cn(C)c2=O)C(=O)Nc2nc3ccc(N4CCN(C)CC4)cc3n2C1 [Example A22, (11R)-5-Cyclopropyl-11,26-dimethyl-16-(4-methylpiperazin-1-yl)-7-oxa-4,5,13,20,22,26-hexaazapentacyclo[22.3.1.0^{2,6}.0^{13,21}.0^{14,19}]octacosa-1(28),2(6),3,14,16,18,20,24-octaene-23,27-dione] | GI50 [2, 13]: 30 nM; GI50 [2, 14]: 22 nM; GI50 [2, 15]: 9.6 nM; GI50 [2, 16]: 51 nM; GI50 [2, 17]: 20 nM; GI50 (PC-9; Homo sapiens, PC-9, 72 h): 87 nM
